Measurements reported in patent US4454341A, “Naphthyl or tetrahydronaphthyl-substituted naphthoic acid and derivatives” (SRI International, priority 1983, dated 1984).

How the values were obtained:
Ornithine Decarboxylase = assay: Ornithine decarboxylase (ODC) assay: inhibition of TPA induction of ODC in mouse skin; type: in vivo, mouse (female Charles River CD-1); settings: topical, 1 hour before TPA (17 nmol)
Method: (§1) The ODC assay measures a compound's ability to prevent the induction of ODC. The tracheal organ culture assay measures a compound's ability to reverse keratinization.
The ODC assay is carried out as follows. Female Charles River CD-1 mice from Charles River Breeding Laboratories, Wilmington, Mass., are used (age 7 to 9 weeks). The dorsal hair of the mice is shaved 1 to 2 days before testing, and only mice showing no hair regrowth are used. A single dose of 12-O-tetradecanoylphorbol-13-acetate (TPA) (10.5 μg, 17 nmol) in 0.2 mL of acetone is applied topically to the back of each mouse. The test compound, at one of three dose levels (1.7, 17 and 170 nmol), dissolved in 0.2 mL of acetone is applied 1 hour before the TPA treatment to the test groups; the control group is treated with acetone alone. The mice are killed by cervical dislocations five hours after TPA treatment. Determinations are done in triplicate.
The epidermis is obtained from the sacrificed animals. To obtain sufficient material, the dorsal skins from 2 to 3 mice in each treatment group are pooled. The depilatory agent Nudit® (Helena Rubinstein, N.Y.) is applied to the shaved area of the skin; after 5 minutes, it is washed off thoroughly with cold tap water. Then the skin is excised and plunged immediately into ice-cold water; it is then placed in a 55° C. water bath for 30 seconds and reimmersed in ice-cold water for at least another 30 seconds. The skin is placed epidermis side up on a cold plate, and the epidermis is scraped off with a razor blade. The pooled epidermal sheets are homogenized (Polytron PT-10 homogenizer) at 0° to 4° C. for 15-20 seconds in 50 mM sodium phosphate and 0.1 mM ethylenediaminetetraacetic acid (EDTA), at a volume of 1 mL/skin.
The supernatant fraction remaining after centrifugation of the homogenate at 10,000×g for 30 seconds at 0° C. is used for the enzyme assay. Enzyme activity is determined using the microassay for ODC as described by Verma and Boutwell to measure the release of ^14 CO2 from DL-[1-^14 C]-ornithine (58 mCi/mmol) after incubation with the 10,000×g supernatant. The incubations are carried out by decanting, with a Pasteur pipette, 100 μL of the supernatant containing 100 to 120 μg of protein into two or three 15-mL Corex tubes in a shaking water bath at 37° C. The assay mixture in the tubes consists of 50 μL of 100 mM sodium phosphate buffer (pH 7.2), 10 μL of 4 mM pyridoxal phosphate, 40 μL of 25 mM dithiothreitol, and 1 μL of 0.1 M EDTA. The center wells in the tubes are filled with 200 μL of a 2:1 solution (v/v) of ethanolamine:2-methoxyethanol. The reaction is started by adding 50 μL of substrate (0.5 μCi of DL-[1-^14 C]-ornithine in 2 mM cold ornithine) at 1-minute intervals by injection to each of the stoppered tubes. Incubations are routinely carried out at 37° C. for 30 to 60 minutes. The reaction is stopped by addition of 0.5 ml of 2M citric acid, and incubation is continued for an additional hour without heating to ensure complete absorption of ^14 CO2.
Radioactivity is measured using a toluene-based scintillant (4 g of PPO and 50 mg of POPOP/L of toluene) in a Beckman LS-250 liquid scintillation counter. Enzyme activity is determined in triplicate and expressed as nanomoles of CO2 released in 30 minutes per milligram of protein. Enzyme activity is linear for the protein concentration used. The protein concentrations of the epidermal extracts are determined by the Lowry procedure, using bovine serum albumin as the standard.

[1] = system: Hamster Tracheal Organ Culture (keratinization); assay: Tracheal organ culture assay (reversal of keratinization); type: cell-based; settings: 10 days in culture
Method: as §1
The tracheal organ culture assay is carried out as follows. Tracheas are taken from hamsters that are in very early stages of vitamin A deficiency and placed in organ culture. At the time of culture, the animals are still gaining weight; the tracheal epithelium is generally low columnar or cuboidal, with only occasional patches of squamous metaplasia. Each trachea is opened from the larynxto the carina along the membranous dorsal wall and cultured in a serum-free medium (CMRL-1066; with crystalline bovine insulin, 0.1 μg/ml; hydrocortisone hemisuccinate, 0.1 μg/ml; glutamine, 2 mM; penicillin, 100 units/ml; and streptomycin, 100 μg/ml, added). Cultures are gassed with 50% oxygen, 45% nitrogen, and 5% CO2. The culture dishes are rocked at 35.5-36.0 degrees to allow the tracheas contact with both gas and medium. All tracheas are grown in medium containing no retinoid for the first 3 days. At the end of 3 days, some tracheas are harvested; almost all of these tracheas have significant squamous metaplasia, and approximately 60% have keratinized lesions. The remaining tracheas are then divided into different groups which are treated with either: (1) retinoid dissolved in dimethylsulfoxide (final concentration of DMSO in culture medium is never greater than 0.1%) or (2) an equivalent amount of DMSO alone. Culture medium is changed three times a week, and all of the remaining tracheas are harvested at the end of 10 days in culture. Tracheas are fixed in 10% buffered formalin and embedded in paraffin. Cross sections of five micrometers are made through the mid-portion, stained with hematoxylin and eosin, and then scored with a microscope for the presence of keratin and keratohyaline granules, both of which are found in approximately 90% of control cultures that received no retinoid for the entire 10 day culture period.

[2] = system: ornithine decarboxylase (ODC); settings: literature, copending application or unpublished data; cited from earlier work

With `CC1=C(/C=C/C(C)=C/C=C/C(C)=C/C(=O)O)C(C)(C)CCC1` [Retinoic Acid] the “Inhibition of Induction of Ornithine Decarboxylase by 12-O-Tetradecanoylphorbol-13-acetate in Mouse Skin, % Inhibition of Control” value (“Inhibition … % Inhibition of Control” below) (Ornithine Decarboxylase; Dose 17 nmol) was 87-91%, the “Reversal of Keratinization in Hamster Tracheal Organ Culture, Active Cultures (%)” value (from here on “Reversal of Keratinization … (%)”) ([1]; Conc 10^-8 M) was 100% and the “Reversal of Keratinization in Hamster Tracheal Organ Culture, Active/Total Cultures” value (“Reversal … Active/Total Cultures” for short) ([1]; Conc 10^-8 M) was 236/236. For the same molecule, the “Reversal of Keratinization … (%)” value ([1]; Conc 10^-9 M) was 88%, the “Reversal … Active/Total Cultures” value ([1]; Conc 10^-9 M) was 419/474 and the “Reversal of Keratinization … (%)” value ([1]; Conc 10^-10 M) was 52%. For the same molecule, the “Reversal … Active/Total Cultures” value ([1]; Conc 10^-10 M) was 134/256.

In the case of `CCOC(=O)c1ccc2cc(-c3ccc4c(c3)C(C)(C)CCC4(C)C)ccc2c1` [Ethyl 6-(1,2,3,4-tetrahydro-1,1,4,4-tetramethyl-6-naphthyl)-2-naphthoate], the “Inhibition … % Inhibition of Control” value (Ornithine Decarboxylase; Dose 1.7 nmol) is reported as 50% and the “Inhibition … % Inhibition of Control” value (Ornithine Decarboxylase; Dose 17 nmol) is reported as 75%.

For `CC1(C)CCC(C)(C)c2cc(-c3ccc4cc(C(=O)O)ccc4c3)ccc21` [6-(1,2,3,4-Tetrahydro-1,1,4,4-tetramethyl-6-naphthyl)-2-naphthoic acid], the “Inhibition … % Inhibition of Control” value (Ornithine Decarboxylase; Dose 1.7 nmol) was 56%, the “Inhibition … % Inhibition of Control” value (Ornithine Decarboxylase; Dose 17 nmol) was 80% and the “Reversal of Keratinization … (%)” value ([1]; Conc 10^-9 M) was 100%. For the same molecule, the “Reversal … Active/Total Cultures” value ([1]; Conc 10^-9 M) was 7/7, the “Reversal of Keratinization … (%)” value ([1]; Conc 10^-10 M) was 100% and the “Reversal … Active/Total Cultures” value ([1]; Conc 10^-10 M) was 7/7. The “Reversal of Keratinization … (%)” value ([1]; Conc 10^-11 M) was 71% and the “Reversal … Active/Total Cultures” value ([1]; Conc 10^-11 M) was 5/7.

For `CCOC(=O)c1ccc(/C=C(\C)c2ccc3c(c2)C(C)(C)CCC3(C)C)cc1` [Ethyl 4-[(E)-2-(1,2,3,4-tetrahydro-1,1,4,4-tetramethyl-6-naphthyl)-1-propen-1-yl]benzoate], the “Inhibition … % Inhibition of Control” value (Ornithine Decarboxylase; Dose 1.7 nmol) is listed as 86%, the “Inhibition … % Inhibition of Control” value (Ornithine Decarboxylase; Dose 17 nmol) is listed as 86% and the “activity in the ODC assay (in words)” value [2] is listed as “exhibits activity in the ODC assay”.

For `CC1=C(C=Cc2ccc3cc(C(=O)O)ccc3c2)C(C)(C)CCC1` [6-[2-(2,6,6-trimethyl-1-cyclohexen-1-yl)ethenyl]-2-naphthoic acid], the “activity in the ODC assay (in words)” value [2] is listed as “exhibited activity in the ODC assay”.
